Assay results published in paper PMC7503500, “A Structure-Activity Relationship Comparison of Imidazodiazepines Binding at Kappa, Mu, and Delta Opioid Receptors and the GABAA Receptor” (Molecules, 2020).
“And” between values parts separate entries of the source, which are not always exact repeats. Equal values may be shown once. Read-outs that look alike come from different tables or passages of the source.

Assays:
[1] = target: µ opioid receptor (MOR) (Homo sapiens, UniProt P35372); assay: Radioligand competition binding, MOR ([3H]-DAMGO), HEK293 cell homogenates; conditions: for inhibition at 10 µM: read-out: MOR % (percent inhibition), at 10,000 nM; for MOR % (percent inhibition): at 10,000 nM
[2] = tested on: synaptic benzodiazepine-sensitive receptors (BZR), GABAAR; assay: 3H-flunitrazepam binding, rat brain homogenate; conditions: for BZR % (percent inhibition): at 10,000 nM; for Ki: read-out: BZR (Ki)
[3] = target: κ opioid receptor (KOR) (Homo sapiens, UniProt P41145); assay: Radioligand competition binding, KOR ([3H]-U69593), HEK293 cell homogenates; conditions: for inhibition at 10 µM: read-out: KOR % (percent inhibition), at 10,000 nM; for inhibition at 10 µM / KOR % (percent inhibition): [3H]-U69593; for KOR % (percent inhibition): at 10,000 nM
[4] = target: T1, human KOR (Homo sapiens, UniProt P41145); assay: cell-based
T1 construct: expressed in transfected cells; host or cells: HEK293T

[5] = target: δ opioid receptor (DOR) (Homo sapiens, UniProt P41143); assay: Radioligand competition binding, DOR ([3H]-DADLE), HEK293 cell homogenates; conditions: for inhibition at 10 µM: read-out: DOR % (percent inhibition), at 10,000 nM; for DOR % (percent inhibition): at 10,000 nM
[6] = read-out: KOR (Ki), [3H]-U69593, HEK293 homogenates

C#Cc1ccc2c(c1)C(c1ccccc1F)=N[C@@H](C)c1c(C(=O)OC(C)(C)C)ncn1-2 [GL-I-30]
Ki [1]: 1850 nM
inhibition at 10 µM ([1]; [3H]-DAMGO): 54%
BZR % (percent inhibition) [2]: 96%
Ki [2]: 177 nM
Ki [3]: 27 nM
Selectivity in respect to BZR binding ([3]; KOR vs BZR Ki): 6.5 fold
Opioid receptor selectivity in comparison to MOR ([3]; KOR vs MOR Ki): 68 fold
inhibition at 10 µM [3]: 95%
Efficacy in comparison to full agonist salvinorin A ([4]; BRET GαoA recruitment): 100%
EC50 ([4]; BRET, n = 24, mean and SEM, read-out: EC50, recruitment of GαoA protein to KOR): 32 nM and 32.3 nM
inhibition at 10 µM [5]: 7%

C#Cc1ccc2c(c1)C(c1ccccc1F)=N[C@@H](C)c1c(C(=O)N(C)C)ncn1-2 [GL-I-54]
inhibition at 10 µM ([1]; [3H]-DAMGO): 18%
BZR % (percent inhibition) [2]: 94%
Ki [2]: 90 nM
Ki [3]: 788 nM
inhibition at 10 µM [3]: 78%
inhibition at 10 µM [5]: 11%

C[C@@H]1N=C(c2ccccc2F)c2cc(Br)ccc2-n2cnc(-c3cnco3)c21 [GL-III-76]
MOR % (percent inhibition) ([1]; [3H]-DAMGO): 3%
BZR % (percent inhibition) [2]: 100%
Ki [2]: 120 nM
KOR % (percent inhibition) [3]: 83%
Ki [3, 6]: 221 nM
DOR % (percent inhibition) [5]: 0%

C#Cc1ccc2c(c1)C(c1ccccc1F)=N[C@H](C)c1c(C(=O)NC3CC3)ncn1-2 [GL-II-75]
inhibition at 10 µM ([1]; [3H]-DAMGO): 0%
BZR % (percent inhibition) [2]: 85%
Ki [2]: 93 nM
Ki [3]: 278 nM
inhibition at 10 µM [3]: 81%
inhibition at 10 µM [5]: 3%

C#Cc1ccc2c(c1)C(c1ccccc1F)=N[C@@H](C)c1c(C(=O)NC3CC3)ncn1-2 [GL-I-55]
inhibition at 10 µM ([1]; [3H]-DAMGO): 17%
BZR % (percent inhibition) [2]: 95%
Ki [2]: 20 nM
Ki [3]: 150 nM
inhibition at 10 µM [3]: 93%
inhibition at 10 µM [5]: 24%

CCOC(=O)c1ncn2c1[C@@H](C)N=C(c1ccccn1)c1cc(Br)ccc1-2 [GL-II-06]
inhibition at 10 µM ([1]; [3H]-DAMGO): 11%
BZR % (percent inhibition) [2]: 81%
Ki [2]: 556 nM
Ki [3]: 401 nM
inhibition at 10 µM [3]: 79%
inhibition at 10 µM [5]: 9%

CCOC(=O)c1ncn2c1[C@H](C)N=C(c1ccccc1F)c1cc(C3CC3)ccc1-2 [GL-I-78]
MOR % (percent inhibition) ([1]; [3H]-DAMGO): 32%
BZR % (percent inhibition) [2]: 76%
Ki [2]: 352 nM
KOR % (percent inhibition) [3]: 96%
DOR % (percent inhibition) [5]: 41%

C#Cc1ccc2c(c1)C(c1ccccc1F)=N[C@@H](C)c1c(-c3nc(CC)no3)ncn1-2 [GL-I-66]
MOR % (percent inhibition) ([1]; [3H]-DAMGO): 28%
BZR % (percent inhibition) [2]: 80%
Ki [2]: 654 nM
KOR % (percent inhibition) [3]: 92%
Ki [3, 6]: 212 nM
DOR % (percent inhibition) [5]: 2%

C#Cc1ccc2c(c1)C(c1ccccn1)=N[C@H](C)c1c(C(=O)OC)ncn1-2 [GL-II-32]
inhibition at 10 µM ([1]; [3H]-DAMGO): 32%
BZR % (percent inhibition) [2]: 63%
Ki [2]: 1430 nM
inhibition at 10 µM [3]: 35%
inhibition at 10 µM [5]: 0%

C#Cc1ccc2c(c1)C(c1ccccc1F)=N[C@@H](C)c1c(C(=O)OC3CC3)ncn1-2 [GL-I-38]
inhibition at 10 µM ([1]; [3H]-DAMGO): 18%
BZR % (percent inhibition) [2]: 96%
Ki [2]: 127 nM
Ki [3]: 68 nM
inhibition at 10 µM [3]: 95%
inhibition at 10 µM [5]: 16%

Cc1ncoc1-c1ncn2c1CN=C(c1ccccc1)c1cc(Br)ccc1-2 [KRM-III-66]
inhibition at 10 µM ([1]; [3H]-DAMGO): 12%
BZR % (percent inhibition) [2]: 86%
Ki [2]: 49 nM
Ki [3]: 756 nM
inhibition at 10 µM [3]: 67%
inhibition at 10 µM [5]: 11%

C#Cc1ccc2c(c1)C(c1ccccc1F)=N[C@@H](C)c1c(-c3nc(C(C)C)no3)ncn1-2 [GL-I-81]
MOR % (percent inhibition) ([1]; [3H]-DAMGO): 64%
Ki ([1]; read-out: MOR Ki, [3H]-DAMGO, HEK293 homogenates): 2920 nM
BZR % (percent inhibition) [2]: 83%
Ki [2]: 839 nM
KOR % (percent inhibition) [3]: 93%
Ki [3, 6]: 127 nM
DOR % (percent inhibition) [5]: 25%

C#Cc1ccc2c(c1)C(c1ccccc1F)=N[C@H](C)c1c(C(=O)OCC)ncn1-2 [SH-053-2′F-R-CH3]
inhibition at 10 µM ([1]; [3H]-DAMGO): 28%
BZR % (percent inhibition) [2]: 85%
Ki [2]: 379 nM
Ki [3]: 240 nM
inhibition at 10 µM [3]: 89%
inhibition at 10 µM [5]: 32%

C#Cc1ccc2c(c1)C(c1ccccc1F)=NCc1c(-c3cnco3)ncn1-2 [KRM-II-18B]
inhibition at 10 µM ([1]; [3H]-DAMGO): 11%
BZR % (percent inhibition) [2]: 97%
Ki [2]: 38 nM
Ki [3]: 361 nM
inhibition at 10 µM [3]: 89%
inhibition at 10 µM [5]: 20%

C#Cc1ccc2c(c1)C(c1ccccn1)=NCc1c(-c3nc(CC)no3)ncn1-2 [MP-III-080]
inhibition at 10 µM ([1]; [3H]-DAMGO): 0%
BZR % (percent inhibition) [2]: 88%
Ki [2]: 303 nM
inhibition at 10 µM [3]: 47%
inhibition at 10 µM [5]: 0%

C#Cc1ccc2c(c1)C(c1ccccc1F)=N[C@@H](C)c1c(C(=O)OCC(F)(F)F)ncn1-2 [GL-I-36]
inhibition at 10 µM ([1]; [3H]-DAMGO): 8%
BZR % (percent inhibition) [2]: 77%
Ki [2]: 418 nM
Ki [3]: 411 nM
inhibition at 10 µM [3]: 85%
inhibition at 10 µM [5]: 0%

C[C@H]1N=C(c2ccccn2)c2cc(Br)ccc2-n2cnc(C(=O)O)c21 [GL-II-51]
inhibition at 10 µM ([1]; [3H]-DAMGO): 0%
BZR % (percent inhibition) [2]: 84%
Ki [2]: 181 nM
inhibition at 10 µM [3]: 11%
inhibition at 10 µM [5]: 0%

CCOC(=O)c1ncn2c1[C@@H](C)N=C(c1ccccc1F)c1cc(C3CC3)ccc1-2 [GL-III-42]
MOR % (percent inhibition) ([1]; [3H]-DAMGO): 0%
BZR % (percent inhibition) [2]: 62%
Ki [2]: 726 nM
inhibition at 10 µM [3]: 86%
DOR % (percent inhibition) [5]: 13%

Fc1ccccc1C1=NCc2c(-c3cnco3)ncn2-c2ccc(Br)cc21 [SH-I-85]
inhibition at 10 µM ([1]; [3H]-DAMGO): 16%
BZR % (percent inhibition) [2]: 99%
Ki [2]: 11 nM
Ki [3]: 162 nM
inhibition at 10 µM [3]: 91%
inhibition at 10 µM [5]: 33%

C#Cc1ccc2c(c1)C(c1ccccn1)=N[C@H](C)c1c(-c3nc(CC)no3)ncn1-2 [GL-II-54]
MOR % (percent inhibition) ([1]; [3H]-DAMGO): 0%
BZR % (percent inhibition) [2]: 66%
Ki [2]: 2040 nM
KOR % (percent inhibition) [3]: 80%
Ki [3, 6]: 504 nM
DOR % (percent inhibition) [5]: 0%

C#Cc1ccc2c(c1)C(c1ccccc1F)=N[C@H](C)c1c(-c3nc(C)no3)ncn1-2 [MP-IV-004]
MOR % (percent inhibition) ([1]; [3H]-DAMGO): 7%
BZR % (percent inhibition) [2]: 63%
Ki [2]: 1080 nM
KOR % (percent inhibition) [3]: 86%
Ki [3, 6]: 444 nM
DOR % (percent inhibition) [5]: 10%

C#Cc1ccc2c(c1)C(c1ccccn1)=NCc1c(C(=O)O)ncn1-2 [SR-II-54]
inhibition at 10 µM ([1]; [3H]-DAMGO): 8%
BZR % (percent inhibition) [2]: 80%
Ki [2]: 69 nM
inhibition at 10 µM [3]: 9%
inhibition at 10 µM [5]: 1%

C#Cc1ccc2c(c1)C(c1ccccc1F)=N[C@@H](C)c1c(C(=O)NC)ncn1-2 [MP-III-023]
inhibition at 10 µM ([1]; [3H]-DAMGO): 0%
BZR % (percent inhibition) [2]: 97%
Ki [2]: 37 nM
Ki [3]: 119 nM
inhibition at 10 µM [3]: 91%
inhibition at 10 µM [5]: 16%

C#Cc1ccc2c(c1)C(c1ccccc1F)=N[C@@H](C)c1c(-c3nc(C)no3)ncn1-2 [GL-I-65]
MOR % (percent inhibition) ([1]; [3H]-DAMGO): 2%
BZR % (percent inhibition) [2]: 79%
Ki [2]: 1150 nM
KOR % (percent inhibition) [3]: 88%
Ki [3, 6]: 222 nM
DOR % (percent inhibition) [5]: 7%

CCNC(=O)c1ncn2c1[C@@H](C)N=C(c1ccccc1F)c1cc(C3CC3)ccc1-2 [GL-III-68]
inhibition at 10 µM ([1]; [3H]-DAMGO): 0%
BZR % (percent inhibition) [2]: 100%
Ki [2]: 452 nM
Ki [3]: 150 nM
inhibition at 10 µM [3]: 88%
inhibition at 10 µM [5]: 10%
